Ends that are not written are not given here.
target: rabbit antibodies that recognize specifically the carboxyl terminal tryptophan of ET-1; assay: radioimmunoassay: displacement of [125I]ET-1 binding to the antibodies; settings: mean±SEM, n=3-5; 4° C. overnight
Description: Diluted samples (200 μL) obtained from the above enzyme assay are incubated at 4° C. overnight with 25 μL each of [^125I]ET-1 (10,000 cpm/tube) and 1:20,000-fold diluted rabbit antibodies that recognize specifically the carboxyl terminal tryptophan of ET-1. Goat anti-rabbit antibodies coupled to magnetic beads (70 μg) are then added to each tube, and the reaction mixture is further incubated for 30 min at room temperature. The beads are pelleted using a magnetic rack. The supernatant is decanted, and the radioactivity in the pellet is counted in a gamma counter. Total and nonspecific binding are measured in the absence of nonradioactive ET-1 and anti-ET antibodies, respectively.

Row | Molecule | IC50 for displacement of [125I]ET-1 binding to the antibodies
1 | ET-1: endothelin-1, formed from big ET-1 by ECE; nonradioactive competitor in the radioimmunoassay | 21 ± 2 fmol
2 | big ET-1: Human big ET-1, the ECE substrate used in the enzyme assay (CSCSSLMDKECVYFCHLDIIWVNTPEHVVPYGLGSPRS; ends and bridges not checked; cysteine pairing not given here; UniProt P05305 53-90, looked up) | 260,000±66,000 fmol

system: not given; assay: not given; settings: not given

Row | Molecule | melting point
3 | O=C(NC1(C(=O)N[C@@H](Cc2ccc(-c3ccsc3)cc2)C(=O)O)CCCC1)C(S)Cc1ccccc1 (stereo in doubt) [2-{[1-(2-Mercapto-3-phenyl-propionylamino)-cyclopentanecarbonyl]-amino}-3-[4-(thiophen-3-yl)-phenyl]-propionic acid] | 190 to 192 °C
4 | CC(C)C[C@H](S)C(=O)NC1(C(=O)NC(Cc2ccc(-c3cncnc3)cc2)C(=O)O)CCCC1 (stereo in doubt) [2-{[1-(2-Mercapto-4-methyl-pentanoylamino)-cyclopentanecarbonyl]-amino}-3-(4-pyrimidin-5-yl-phenyl)-propionic acid] | 192 to 195 °C
5 | CSc1ccc(-c2ccc(C[C@H](NC(=O)C3(NC(=O)[C@@H](S)CC(C)C)CCCC3)C(=O)O)cc2)cc1 (stereo in doubt) [2-{[1-(2-mercapto4-methyl-pentanoylamino)-cyclopentanecarbonyl]-amino}-3-(4′-methylthio-biphenyl-4-yl)-propionic acid] | 187 to 189 °C
6 | COc1ccccc1-c1ccc(C[C@H](NC(=O)C2(NC(=O)[C@@H](S)C(C)C)CCCC2)C(=O)O)cc1OC (stereo in doubt) [3-(2,2′-Dimethoxy-biphenyl-4-yl)-2-{[1-(2-mercapto-3-methyl-butanoylamino)-cyclopentanecarbonyl]-amino}-propionic acid] | 173 to 175 °C
7 | CC(C)[C@H](S)C(=O)NC1(C(=O)N[C@@H](Cc2ccc(-c3ccccc3F)cc2)C(=O)O)CCCC1 (stereo in doubt) [3-(2′-Fluoro-biphenyl-4-yl)-2-{[1-(2-mercapto-3-methyl-butanoylamino)-cyclopentanecarbonyl]-amino}-propionic acid] | 171 to 173 °C
8 | CC(C)C[C@H](S)C(=O)NC1(C(=O)NC(Cc2ccc(-c3ccccc3O)cc2)C(=O)O)CCCC1 (stereo in doubt) [3-(2′-Hydroxy-biphenyl-4-yl)-2-{[1-(2-mercapto-4-methyl-pentanoylamino)-cyclopentanecarbonyl]-amino}-propionic acid] | 215 to 217 °C
9 | CC(C)C[C@H](S)C(=O)NC1(C(=O)N[C@@H](Cc2ccc(-c3cccc(F)c3)cc2)C(=O)O)CCCC1 (stereo in doubt) [3-(3′-Fluoro-biphenyl-4-yl)-2-{[1-(2-mercapto-4-methyl-pentanoylamino)-cyclopentanecarbonyl]-amino}-propionic acid] | 125 to 128 °C
10 | CC(C)C[C@H](S)C(=O)NC1(C(=O)N[C@@H](Cc2ccc(-c3ccno3)cc2)C(=O)O)CCCC1 (stereo in doubt) [3-(4-Isoxazole-5-yl-phenyl)-2-{[1-(2-mercapto4-methyl-pentanoylamino)-cyclopentanecarbonyl]-amino}-propionic acid] | 104 to 110 °C
11 | CCC[C@H](S)C(=O)NC1(C(=O)N[C@@H](Cc2ccc(-c3ccno3)cc2)C(=O)O)CCCC1 (stereo in doubt) [3-(4-Isoxazole-5-yl-phenyl)-2-{[1-(2-mercapto-pentanoylamino)-cyclopentanecarbonyl]-amino}-propionic acid] | 95 to 108 °C
12 | CC(C)[C@H](S)C(=O)NC1(C(=O)N[C@@H](CC2CCC(C3CCCCC3)CC2)C(=O)O)CCCC1 (stereo in doubt) [3-Bicyclohexyl-4-yl-2-{[1-(2-mercapto-3-methyl-butanoylamino)-cyclopentanecarbonyl]-amino}-propionic acid] | 209 to 210 °C
13 | CC(C)[C@H](S)C(=O)NC1(C(=O)N[C@@H](Cc2cccc(-c3ccccc3)c2)C(=O)O)CCCC1 (stereo in doubt) [3-Biphenyl-3-yl-2-{[1-(2-mercapto-3-methylbutanoylamino)-cyclopentanecarbonyl]-amino}-propionic acid] | 75 to 78 °C
14 | CC(C)[C@H](S)C(=O)NC1(C(=O)N[C@@H](Cc2ccc(-c3ccccc3)cc2)C(=O)O)CCc2ccccc21 (stereo in doubt) [3-Biphenyl-4-yl-2-{[1-(2-mercapto-3-methyl-butyrylamino)-indane-1-carbonyl]-amino}-propionic acid] | 115 to 120 °C
15 | O=C(O)[C@H](Cc1ccc(-c2ccccc2)cc1)NC(=O)C1(NC(=O)[C@@H](S)Cc2ccc3ccccc3c2)CCCC1 (stereo in doubt) [3-Biphenyl-4-yl-2-{[1-(2-mercapto-3-naphthalen-2-yl-propionylamino)-cyclopentanecarbonyl]-amino}-propionic acid] | 166 to 168 °C
16 | CC(C)[C@H](S)C(=O)NC1(C(=O)N[C@@H](Cc2ccc(-c3ccccc3)cc2)C(=O)O)CCOCC1 (stereo in doubt) [3-Biphenyl-4-yl-2-{[4-(2-mercapto-3-methyl-butanoylamino)-tetrahydro-pyran-4-carbonyl]-amino}-propionic acid] | 161 to 163 °C
17 | CC(=O)N1CCCC(c2ccc(C[C@H](NC(=O)C3(NC(=O)[C@@H](S)C(C)C)CCCC3)C(=O)O)cc2)C1 (stereo in doubt) [3-[4-(1-Acetyl-piperidin-3-yl)-phenyl]-2-{[1-(2-mercapto-3-methyl-butanoylamino)-cyclopentanecarbonyl]-amino}-propionic acid] | 190 to 192 °C
18 | CC(C)[C@H](S)C(=O)NC1(C(=O)NC(Cc2ccc(-c3csc(CO)c3)cc2)C(=O)O)CCCC1 (stereo in doubt) [3-[4-(5-Hydroxymethyl-thiophen-3-yl)-phenyl]-2-{[1-(2-mercapto-3-methyl-butanoylamino)-cyclopentanecarbonyl]-amino}-propionic acid] | 155 to 158 °C
19 | CC(C)[C@H](S)C(=O)NC1(C(=O)NC(Cc2ccc(-c3ccncc3)cc2)C(=O)O)CCCC1 (stereo partly drawn) [2-{[1-(2-Mercapto-3-methyl-butanoylamino)-cyclopentanecarbonyl]-amino}-3-(4-yl-phenyl)-propionic acid] | 236 to 238 °C
20 | O=C(NC1(C(=O)NC(Cc2ccc(C3CCCCC3)cc2)C(=O)O)CCCC1)C(S)Cc1ccccc1 (stereo not drawn) [3-(4-Cyclohexyl-phenyl)-2-{[1-(2-mercapto-3-phenyl-propionylamino)-cyclopentanecarbonyl]-amino}-propionic acid] | 172 to 175 °C
21 | Cc1c(CC(NC(=O)C2(NC(=O)C(S)CC(C)C)CCCC2)C(=O)O)oc2c(F)c(F)c(F)c(F)c12 (stereo not drawn) [Example 13(a), 2-{[1-(2-Mercapto-4-methyl-pentanoylamino)-cyclopentanecarbonyl]-amino}-3-(4,5,6,7-tetrafluoro-3-methyl-benzofuran-2-yl)-propionic acid] | 115 to 117 °C
22 | CC(C)CC(S)C(=O)NC1(C(=O)NC(Cc2c[nH]c3ccccc23)C(=O)O)CCCC1 (stereo not drawn) [Example 13(b), 3-(1H-Indol-3-yl)-2-{[1-(2-mercapto-4-methyl-pentanoylamino)-cyclopentanecarbonyl]-amino}-propionic acid] | 116 to 118 °C
23 | CCCC(S)C(=O)NC1(C(=O)NC(Cc2c[nH]c3ccccc23)C(=O)O)CCCC1 (stereo not drawn) [Example 13(c), 3-(1H-Indol-3-yl)-2-{[1-(2-mercapto-pentanoylamino)-cyclopentanecarbonyl]-amino}-propionic acid] | 102 to 105 °C
24 | CC(C)CC(S)C(=O)NC1(C(=O)NC(Cc2csc3ccccc23)C(=O)O)CCCC1 (stereo not drawn) [Example 13(e), 3-Benzo[b]thiophen-3-yl-2-{[1-(2-mercapto4-methyl-pentanoylamino)-cyclopentanecarbonyl]-amino}-propionic acid] | 135 to 137 °C

Reference: patent publication US6423727B1, “Certain thiol inhibitors of endothelin-converting enzyme” (Novartis AG, priority 1998, dated 2002)
